From US20140162942A1, “INHIBITION OF CYP3A DRUG METABOLISM” (priority 2010, published 2014)
Read-outs that look alike come from different tables or passages of the source.

How the values were obtained:
CYP2B6 = target: T1, CYP2B6 (Homo sapiens, UniProt P20813); experiment: CYP2B6 inhibition, bupropion hydroxylation in human liver microsomes; format: in vitro ADME; conditions: for Potential for Time-Dep. Inhibition: comparison with and without 30-minute pre-incubation; for inhibition at 5 min, 100 µM: human, pH 7.4, probe bupropion (hydroxylation)
T1 construct: Pooled human liver microsomes (from sixteen individuals) were used as the source of enzymes; tissue XenoTech, LLC; host or cells: human liver microsomes, pool of sixteen donors
T1 sequence (P20813 1-491): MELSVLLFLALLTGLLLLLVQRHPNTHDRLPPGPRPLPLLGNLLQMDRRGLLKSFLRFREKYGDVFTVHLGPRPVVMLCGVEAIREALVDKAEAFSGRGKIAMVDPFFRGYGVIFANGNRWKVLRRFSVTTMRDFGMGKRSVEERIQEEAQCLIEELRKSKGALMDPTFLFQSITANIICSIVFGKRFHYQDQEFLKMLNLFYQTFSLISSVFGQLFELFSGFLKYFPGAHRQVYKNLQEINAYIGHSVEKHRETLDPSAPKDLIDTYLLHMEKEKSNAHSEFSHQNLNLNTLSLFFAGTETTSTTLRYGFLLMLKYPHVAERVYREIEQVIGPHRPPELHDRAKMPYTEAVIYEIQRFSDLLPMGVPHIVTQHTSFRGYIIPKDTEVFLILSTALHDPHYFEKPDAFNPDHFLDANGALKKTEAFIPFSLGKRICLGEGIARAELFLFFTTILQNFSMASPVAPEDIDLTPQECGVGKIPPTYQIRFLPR
Procedure: The basis for many of the following incubation conditions is described in the following references: Madan, et al., 2002,^(1) Huang, 2004,^(3) Ogilvie, et al., 2006,^(6) Pearce, et al., 1996,^(7) Tucker, et al., 2001,^(4) and Walsky and Obach, 2004.^(5) In general, incubations were conducted at approximately 37° C. in 400-μL incubation mixtures (target pH 7.4) containing high purity water, potassium phosphate buffer (50 mM), MgCl2 (3 mM), EDTA (1 mM), an NADPH-generating system [always the mixture of the following: NADP (1 mM), glucose-6-phosphate (5 mM), glucose-6-phosphate dehydrogenase (1 Unit/mL)], and marker substrate at the final concentrations indicated. Pooled human liver microsomes (from sixteen individuals) were used as the source of enzymes (Section 1.3.1.2). The concentrations of marker substrates were based on the Km and Vmax data that were determined previously (data not shown).
Due to the possibility that boceprevir may bind to microsomal protein or lipids, an attempt was made to design these experiments such that, in as many cases as possible, the microsomal protein, incubation time, and phosphate buffer concentration were 0.1 mg/mL, 5 minutes and 50 mM, respectively, for assays performed with human liver microsomes (Table 1). […] Since it is not imperative that the concentration of marker substrates be exactly equal to Km, the marker substrate concentrations were rounded up or down, as applicable, to simplify the experimental design (data not shown). […] Thus, the final incubation concentration of phenacetin was 60 μM (Table 1).
The ability of boceprevir to inhibit the CYP enzymes listed in Section 1.2.1 was investigated with a pool of sixteen individual human liver microsomal samples at the concentrations indicated in Table 1. Aliquots of the stock and/or working solutions of boceprevir were manually added to buffer mixtures containing the components described in Section 1.3.21. Incubation mixtures were prepared in bulk to obviate the need for directly pipetting very small volumes (i.e., 1 μL or less). Incubations containing no boceprevir (0 μM) contained the vehicle used to dissolve boceprevir (i.e., 1% methanol).
The Tecan liquid handling system conducted all remaining incubation steps, with the exception of the centrifugation. Aliquots of the buffer mixtures were then automatically added to 96-well plates at the appropriate locations in duplicate. Aliquots of a substrate working solution were added to the 96-well plates, prior to initiating reactions, to give the final concentrations indicated in Table 1. Reactions were initiated with the addition of an aliquot of an NADPH-generating system. Reactions were automatically terminated at approximately 5 minutes, by the addition of the appropriate internal standard (Table 5) and stop reagent; acetonitrile. Precipitated protein was removed by centrifugation (920 g for 10 minutes at 10° C.). Standards and quality control samples were similarly prepared with the addition of authentic metabolite standards.
To examine its ability to act as a time-dependent inhibitor, boceprevir (at the same concentrations used to evaluate direct inhibition) was pre-incubated at 37±1° C., in duplicate, with human liver microsomes and an NADPH-generating system for approximately 30 minutes. This pre-incubation allowed for the generation of intermediates that could inhibit human CYP enzymes. The pre-incubations were initiated with the addition of an aliquot of an NADPH-generating system. […] Reactions were automatically terminated, at approximately 5 minutes, by the addition of the appropriate internal standard (Table 5) and stop reagent; acetonitrile. Precipitated protein was removed by centrifugation (920 g for 10 minutes at 10° C.). Incubations containing no boceprevir (0 μM) and incubations that contained boceprevir but were not pre-incubated, served as negative controls.

CYP3A4/5 = experiment: Metabolite inhibitory complex (MIC) formation, human liver microsomes with high CYP3A4/5 activity; format: in vitro ADME; conditions: 3 μM, scans 380-520 nm for 15 minutes
Procedure: In an attempt to determine the mechanism in which boceprevir inactivated CYP3A4/5, an experiment was conducted to determine if boceprevir formed a spectrophotometrically detectable metabolite inhibitory complex with cytochrome P450 (i.e., peaks at approximately 452 nm).
In this experiment (summarized in Table 4), an individual human liver microsomal sample containing high levels of CYP3A4/5 activity (final protein concentration of 1 mg/mL, 1.7 nmol P450/mg protein) was added to the sample and reference cuvettes in a buffer mixture consisting of potassium phosphate (50 mM), and MgCl2 (3 mM) for a final volume of 980 μL. Baseline scans from 380 to 520 nm were recorded on a Varian Cary 100 BIO UV/Vis dual beam spectrophotometer. Boceprevir was then added to the sample cuvette in 10 μL of methanol for a final incubation concentration of 3 μM. A corresponding volume of the solvent (10 μL of methanol), used to dissolve boceprevir, was added to the reference. The reactions were initiated with 10 μL of β-NADPH added to both cuvettes to give a final volume of 1 mL. Continuous scans were conducted every minute for 15 minutes after the addition of β-NADPH. All scans were conducted at approximately 37° C. […]

CC(C)(C)NC(=O)NC(C(=O)N1CC2C([C@H]1C(=O)NC(CC1CCC1)C(=O)C(N)=O)C2(C)C)C(C)(C)C (stereo partly drawn) [Boceprevir, (1R,2S,5S)—N-[(2Ξ)-4-amino-1-cyclobutyl-3,4-dioxobutan-2-yl]-3-{(2S)-2-[(tert-butylcarbamoyl)amino]-3,3-dimethylbutanoyl}-6,6-dimethyl-3-azabicyclo[3.1.0]hexane-2-carboxamide]
Potential for Time-Dep. Inhibition (CYP2B6): little or no
Potential for Time-Dep. Inhibition (CYP2B6; listed as boceprevir): no discernable time-dependent inhibition
IC50 (CYP2B6; direct inhibition, zero-minute pre-incubation, pooled human liver microsomes): > 100 µM
inhibition at 5 min, 100 µM (CYP2B6; pooled human liver microsomes, direct inhibition, zero-minute pre-incubation, read-out: Max. Inhib. at 100 μM): 2.3%
inhibition at 5 min, 100 µM (CYP2B6; pooled human liver microsomes, time-dependent inhibition, 30-minute pre-incubation, read-out: Maximum Inhibition at 100 μM): 6.9%
IC50 (CYP2B6; time-dependent inhibition, 30-minute pre-incubation): > 100 µM
Formation of a spectrally visible metabolite inhibitory complex (MIC) (CYP3A4/5): did not appear to form a spectrally visible MIC
